# According to patent US9796711B2, “Substituted pyrazolo[3,4-b]pyridin-6-carboxylic acids and method of use” (AbbVie S.àr.l., priority 2015, dated 2017):
# Legend:
# [1] = target: T1, ΔF508-CFTR (Homo sapiens, UniProt P13569, DEL508-508); assay: CFTR cell surface levels using HRP-tagged ΔF508-CFTR expressing CFBE cells, in the presence of a co-corrector; type: cell-based
# T1 construct: host or cells: CFBE41o-, doxycycline-inducible
# Method in brief: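 Cells were seeded with 0.5 μg/mL doxycycline and held 68 h at 37 °C. Test compounds plus 3 μM co-corrector (final 0.1% DMSO) were then added for 20 h at 33 °C. Washed cells received HRP substrate, and luminescence was normalized between DMSO and 3 μM co-corrector controls.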
# [2] = target: T1, ΔF508-CFTR; assay: CFTR cell surface levels using HRP-tagged ΔF508-CFTR expressing CFBE cells, intrinsic corrector capacity; type: cell-based
# Method in brief: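 Here the cells express ΔF508-CFTR with horseradish peroxidase inserted in extracellular loop 4, so only rescued channel at the surface gives luminescent signal. Compounds act on their own, 20 h at the reduced temperature of 33 °C; values are percent activity relative to DMSO and a 3 μM corrector.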
# [3] = HRP-tagged ΔF508-CFTR expressing CFBE cells, in the presence of 3 μM co-corrector
# [4] = HRP-tagged ΔF508-CFTR expressing CFBE cells, in the presence of 3 μM co-corrector, read-out: EC50
# [5] = HRP-tagged ΔF508-CFTR expressing CFBE cells, intrinsic corrector capacity (no co-corrector), 33° C., 20 hours
# [6] = HRP-tagged ΔF508-CFTR expressing CFBE cells, intrinsic corrector capacity (no co-corrector), 33° C., 20 hours, read-out: EC50
# [7] = HRP-tagged ΔF508-CFTR CFBE41o- cells, compounds alone (intrinsic corrector capacity), 20 hours at 33° C., positive control 3 μM corrector
# [8] = HRP-tagged ΔF508-CFTR CFBE41o- cells, compounds alone (intrinsic corrector capacity), 20 hours at 33° C., read-out: EC50
# T1 sequence (P13569 with tags, fused parts or gaps DEL508-508): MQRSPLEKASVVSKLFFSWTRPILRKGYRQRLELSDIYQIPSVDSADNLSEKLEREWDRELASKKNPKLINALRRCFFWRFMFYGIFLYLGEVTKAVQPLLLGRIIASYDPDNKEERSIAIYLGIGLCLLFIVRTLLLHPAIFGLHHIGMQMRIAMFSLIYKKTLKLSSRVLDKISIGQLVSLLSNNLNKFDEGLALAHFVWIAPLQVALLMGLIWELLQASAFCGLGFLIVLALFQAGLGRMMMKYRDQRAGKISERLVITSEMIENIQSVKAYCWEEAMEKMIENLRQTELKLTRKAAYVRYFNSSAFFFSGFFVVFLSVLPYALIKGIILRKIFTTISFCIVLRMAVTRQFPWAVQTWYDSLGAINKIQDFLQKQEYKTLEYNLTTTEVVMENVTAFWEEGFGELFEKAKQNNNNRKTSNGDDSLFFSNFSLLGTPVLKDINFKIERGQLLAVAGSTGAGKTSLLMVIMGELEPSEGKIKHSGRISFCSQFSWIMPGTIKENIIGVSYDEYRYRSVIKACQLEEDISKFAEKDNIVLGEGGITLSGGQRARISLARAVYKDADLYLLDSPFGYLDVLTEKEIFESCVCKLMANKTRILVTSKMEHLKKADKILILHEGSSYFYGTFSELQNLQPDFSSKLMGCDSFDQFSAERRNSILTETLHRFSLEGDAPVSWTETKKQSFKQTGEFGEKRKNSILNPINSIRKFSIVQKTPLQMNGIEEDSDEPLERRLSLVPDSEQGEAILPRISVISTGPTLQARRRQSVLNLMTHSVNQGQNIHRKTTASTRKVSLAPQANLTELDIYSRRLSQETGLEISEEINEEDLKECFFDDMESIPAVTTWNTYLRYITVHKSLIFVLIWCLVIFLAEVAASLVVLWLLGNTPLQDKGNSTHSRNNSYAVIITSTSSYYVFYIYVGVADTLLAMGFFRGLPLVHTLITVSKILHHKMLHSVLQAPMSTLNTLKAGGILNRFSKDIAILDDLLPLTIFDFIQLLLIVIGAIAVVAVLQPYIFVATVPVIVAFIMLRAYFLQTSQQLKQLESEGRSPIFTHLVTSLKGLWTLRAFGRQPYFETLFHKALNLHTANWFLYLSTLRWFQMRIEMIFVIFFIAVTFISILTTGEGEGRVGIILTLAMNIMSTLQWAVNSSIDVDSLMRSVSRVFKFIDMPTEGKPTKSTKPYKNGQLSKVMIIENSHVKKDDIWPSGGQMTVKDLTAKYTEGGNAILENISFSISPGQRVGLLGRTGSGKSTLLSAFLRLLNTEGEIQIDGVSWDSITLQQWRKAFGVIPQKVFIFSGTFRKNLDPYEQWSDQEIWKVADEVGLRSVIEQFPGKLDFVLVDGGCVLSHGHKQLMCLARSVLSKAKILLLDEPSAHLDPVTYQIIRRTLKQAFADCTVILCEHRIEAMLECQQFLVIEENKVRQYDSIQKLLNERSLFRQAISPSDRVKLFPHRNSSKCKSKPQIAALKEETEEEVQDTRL
SMILES,"% Activation [1, 3] [%]","EC50 [1, 4] [nM]","% Activation [2, 5] [%]","EC50 [2, 6] [nM]","% Activation [2, 7] [%]","EC50 [2, 8] [nM]",EC50 [1] [nM],EC50 [2] [nM]
"CO[C@@H]1CCN(CC2CCN(c3cc(C(=O)O)nc4c3c(C3CCC3)nn4-c3ccccc3)CC2)C1 [compound 803, 3-cyclobutyl-4-(4-{[(3R)-3-methoxypyrrolidin-1-yl]methyl}piperidin-1-yl)-1-phenyl-1H-pyrazolo[3,4-b]pyridine-6-carboxylic acid]",436,672,229.35,1020,–,–,–,–
"Cc1nn(-c2ccccc2)c2nc(C(=O)O)cc(N3CCCCC3)c12 [compound 123, 3-methyl-1-phenyl-4-(piperidin-1-yl)-1H-pyrazolo[3,4-b]pyridine-6-carboxylic acid]",267.95,2690,–,–,107.95,3280,–,–
"CC(C)OC(=O)N1CC[C@@H]2CN(c3cc(C(=O)O)nc4c3c(C3CCC3)nn4-c3ccccc3)CC[C@@H]21 (racemic) [compound 610, rac-3-cyclobutyl-1-phenyl-4-[(3aR,7aS)-1-{[(propan-2-yl)oxy]carbonyl}octahydro-5H-pyrrolo[3,2-c]pyridin-5-yl]-1H-pyrazolo[3,4-b]pyridine-6-carboxylic acid]",539.05,44.8,262.4,123,–,–,–,–
"Cc1cccc(-n2nc(C(C)C)c3c(N4CCC(C#N)CC4)cc(C(=O)O)nc32)c1 [compound 191, 4-(4-cyanopiperidin-1-yl)-1-(3-methylphenyl)-3-(propan-2-yl)-1H-pyrazolo[3,4-b]pyridine-6-carboxylic acid]",375.1,481,–,–,208.12,998,–,–
"CC(C)c1nn(-c2cccc(N3CCOCC3)c2)c2nc(C(=O)O)cc(-c3cnc(N4CCC(C#N)CC4)nc3)c12 [compound 204, 4-[2-(4-cyanopiperidin-1-yl)pyrimidin-5-yl]-1-[3-(morpholin-4-yl)phenyl]-3-(propan-2-yl)-1H-pyrazolo[3,4-b]pyridine-6-carboxylic acid]",589.7,844,–,–,402.1,1110,–,–
"CC(C)c1nn(-c2ccc(F)cc2)c2nc(C(=O)O)cc(N3CCC(C(C)N4CCCC4)CC3)c12 (centres unmarked) [compound 789, 1-(4-fluorophenyl)-3-(propan-2-yl)-4-{4-[1-(pyrrolidin-1-yl)ethyl]piperidin-1-yl}-1H-pyrazolo[3,4-b]pyridine-6-carboxylic acid]",460.95,918,257.05,477,–,–,–,–
"CC(C)c1nn(-c2ccc(F)cc2)c2nc(C(=O)O)cc(N3CCC(C(C)(C)O)CC3)c12 [compound 656, 1-(4-fluorophenyl)-4-[4-(2-hydroxypropan-2-yl)piperidin-1-yl]-3-(propan-2-yl)-1H-pyrazolo[3,4-b]pyridine-6-carboxylic acid]",415.7,191,287.7,437,–,–,–,–
"CC(C)c1nn(C2CCCCC2)c2nc(C(=O)O)cc(-c3ccc(N(C)C4CCOCC4)nc3)c12 [compound 169, 1-cyclohexyl-4-{6-[methyl(oxan-4-yl)amino]pyridin-3-yl}-3-(propan-2-yl)-1H-pyrazolo[3,4-b]pyridine-6-carboxylic acid]",436.5,302,–,–,217.88,448,–,–
"O=C(O)c1cc(N2CCC(CN3CCCC3)CC2)c2c(C3CCC3)nn(-c3ccccc3)c2n1 [compound 557, 3-cyclobutyl-1-phenyl-4-{4-[(pyrrolidin-1-yl)methyl]piperidin-1-yl}-1H-pyrazolo[3,4-b]pyridine-6-carboxylic acid]",418.2,200,221.7,444,–,–,–,–
"COCCN1CCN(c2ccc(-c3cc(C(=O)O)nc4c3c(C3CCC3)nn4C3CCCCC3)cn2)CC1 [compound 878, 3-cyclobutyl-1-cyclohexyl-4-{6-[4-(2-methoxyethyl)piperazin-1-yl]pyridin-3-yl}-1H-pyrazolo[3,4-b]pyridine-6-carboxylic acid]",391.3,99.6,181.05,221,–,–,–,–
"CC(C)c1nn(-c2cccc(N3CCOCC3)n2)c2nc(C(=O)O)cc(-c3ccc(N4CCOCC4)cc3)c12 [compound 244, 4-[4-(morpholin-4-yl)phenyl]-1-[6-(morpholin-4-yl)pyridin-2-yl]-3-(propan-2-yl)-1H-pyrazolo[3,4-b]pyridine-6-carboxylic acid]",514.48,458,–,–,320.17,473,–,–
"O=C(O)c1cc(N2CCC(CCN3CCCC3)CC2)c2c(C3CCC3)nn(-c3ccccc3)c2n1 [compound 574, 3-cyclobutyl-1-phenyl-4-{4-[2-(pyrrolidin-1-yl)ethyl]piperidin-1-yl}-1H-pyrazolo[3,4-b]pyridine-6-carboxylic acid]",469.5,190,294,479,–,–,–,–
"CC(C)N1CCC2(CCN(c3cc(C(=O)O)nc4c3c(C3CCC3)nn4-c3ccc(F)cc3)CC2)CC1 [compound 890, 3-cyclobutyl-1-(4-fluorophenyl)-4-[9-(propan-2-yl)-3,9-diazaspiro[5.5]undecan-3-yl]-1H-pyrazolo[3,4-b]pyridine-6-carboxylic acid]",406.67,225,179,742,–,–,–,–
"COCCN1CCC2(CC1)CCN(c1cc(C(=O)O)nc3c1c(C1CCC1)nn3-c1ccc(F)cc1)CC2 [compound 897, 3-cyclobutyl-1-(4-fluorophenyl)-4-[9-(2-methoxyethyl)-3,9-diazaspiro[5.5]undecan-3-yl]-1H-pyrazolo[3,4-b]pyridine-6-carboxylic acid]",354.93,186,151.25,348,–,–,–,–
"COC[C@H]1CCN(CC2CCN(c3cc(C(=O)O)nc4c3c(C3CCC3)nn4-c3ccccc3)CC2)C1 [compound 804, 3-cyclobutyl-4-(4-{[(3S)-3-(methoxymethyl)pyrrolidin-1-yl]methyl}piperidin-1-yl)-1-phenyl-1H-pyrazolo[3,4-b]pyridine-6-carboxylic acid]",365,231,191.15,489,–,–,–,–
"O=C(O)c1cc(N2CCC(N3CCOCC3)CC2)c2c(C3CCC3)nn(-c3ccccc3)c2n1 [compound 560, 3-cyclobutyl-4-[4-(morpholin-4-yl)piperidin-1-yl]-1-phenyl-1H-pyrazolo[3,4-b]pyridine-6-carboxylic acid]",437.33,–,265.05,–,–,–,171,393
"O=C(O)c1cc(N2CCC(N3CCOCC3)CC2)c2c(C3CCC3)nn(-c3cccc(OC(F)F)c3)c2n1 [compound 910, 3-cyclobutyl-1-[3-(difluoromethoxy)phenyl]-4-[4-(morpholin-4-yl)piperidin-1-yl]-1H-pyrazolo[3,4-b]pyridine-6-carboxylic acid]",499.9,79.1,286.2,187,–,–,–,–
